Results published in patent US20150330990A1, “METHOD OF SCREENING CANDIDATE BIOCHEMICAL ENTITIES TARGETING A TARGET BIOCHEMICAL ENTITY” (BIODESY, INC., priority 2013, published 2015).
Values joined by “and” are separate entries in the source; they are usually repeats but may differ in a detail not shown here. Equal entries are not always repeated.

Assays:
alpha-synuclein [1] = biological target: T1, alpha-synuclein (Homo sapiens, UniProt P37840, A90C); settings: 1 mM Dopamine, 50 mM Hepes pH 7.4, 100 mM NaCl
Experimental: An alanine to cysteine mutation (A90C) was introduced into alpha-synuclein to produce a site-specific peptide for dye conjugation, as native alpha-synuclein lacks cysteine residues. A90C alpha-synuclein was then labeled with PyMPO-Maleimide using standard techniques and the location of the modified peptide was verified by mass spectroscopy to be cysteine 90.
For SHG experiments performed with alpha-synuclein, a stock solution of PyMPO-Maleimide-labeled A90C alpha-synuclein was diluted to a final concentration of 5 μM in 50 mM Hepes, pH 7.4, 100 mM NaCl. The 5 μM protein solution was then immobilized onto an aldehyde derivatized glass slide by incubating for one hour at room temperature. Control (buffer) and compound injections were performed in 50 mM Hepes, pH 7.4, 100 mM NaCl.
The experiments were performed with an instrument comprising a mode-locked Ti:sapphire oscillator which provides the fundamental beam necessary to generate the second-harmonic signal (high peak power intensity). We used a Mira 900 Ti:Sapphire ultrafast oscillator (Coherent Inc.) pumped by a Millenia V DPSS laser (Spectra-Physics Corp.). The Ti:sapphire oscillator produced ˜0.7 W of fundamental power at 780 nm with pulse duration of ˜150 fs at 80 MHz. […]

alpha-synuclein [2] = biological target: T1, alpha-synuclein; test: SHG conformational change assay, compound added alone; assay type: binding; parameters: made in house; settings: for EC50: 5 μM alpha-synuclein, GraphPad non-linear fit, read-out: EC50 (SHG dose-response curve; binding affinity)
Text: A single-site cysteine mutant […]) of the alpha-synuclein was constructed and labeled with PyMPO-maleimide (Invitrogen), an SH-active probe that we have used in previous studies ([…], Journal of Chemical Physics 125(7), 2006; […], Physical Chemistry Chemical Physics 9(42):5704-5711, 2007). Mutant […]) protein was previously determined to function like wild-type (Bertoncini C W, et al., Proceedings of the National Academy of Sciences of the United States of America 102(5):1430-1435, 2005). The label was coupled to the protein according to the manufacturer's instructions and purified by gel filtration. Artemis SHG Screening Instrumentation: The Artemis instrument is comprised of a mode-locked Ti:sapphire oscillator that provides the fundamental beam necessary to generate second-harmonic light (high peak power intensity). […] Each of the 16 wells is read in sequence by translating the stage via the control software. Artemis was outfitted with a single-channel liquid injector (Cavro) which delivered a liquid bolus. The liquid bolus volume and delivery speed could be varied. In the experiments described here, we used a volume of 10 μl delivered in 1 second. The measured parameters include the read time before and after ligand injection, integration time, stage temperature (kept at room temperature for all experiments here), and the stage position, relative to the line of the fundamental beam. A custom silicone template with adhesive backing (Arrowleaf Research) was applied to commercially available Xenobind glass microscope slides (Xenopore) using a custom machined assembly jig to define 16 wells of diameter 3 mm (volume 15 μl) on each slide. The template defining the wells is registered to a standard 96-well plate. […] After allowing the protein to absorb, the slide was placed on the […] platform and each well was scanned via SHG to determine the amount of protein in each well. Unbound protein was then removed by washing five times with 20 μL PBS. A post-wash well scan was then performed to determine how much protein was bound to the slide surface. To determine the dose-response curves of Spermine (Sigma), Spermidine (Sigma), and COMPOUND A, serial dilutions of each compound were used to prepare stock solutions. Each compound was added to a well to produce the indicated final concentration. […] For COMPOUND A the concentration range was 5 μ[…], and 1 mM. The concentrations were then converted to the log scale and the data plotted in GraphPad Prism V5 using the non-linear regression fit for log(agonist) vs response with variable slope. […] The EC50 values were calculated by the software. Control experiments were performed on each compound to empirically determine the time frame required for each compound to produce a maximal response (Tmax). […] The resulting value was reported as the percent change in SHG intensity due to compound addition.

alpha-synuclein [3] = biological target: T1, alpha-synuclein; test: SHG competition assays (spermine-spermidine, spermine-COMPOUND A, analog-spermine, library screen); assay type: binding; parameters: made in house; settings: 3 mM Spermidine added after 25 minutes incubation with 1 mM Spermine
Experimental: The Maybridge Ro3 fragment library contains over 1,000 pharmacophoric compounds of 95% purity solubilized at 50 mM in DMSO. For fragment screening experiments, a single compound from the library was diluted in PBS and placed in each well at a final concentration of 1 mM ([…]).
After 25 minutes, 3 mM spermidine was added to each well and the resulting change in SHG intensity was measured.
To calculate the percent change, the SHG intensity as measured just prior to injection (T0) was subtracted from the SHG intensity at Tmax and then divided by T0 according to the following equation: SHG %=(ISHG@Tmax−ISHG@T0)/ISHG@T0.
A control buffer injection was used to determine the threshold for SHG intensity change and was calculated in a similar manner to above. The net SHG intensity change for each compound was then reported by subtracting the buffer threshold value from the SHG intensity value produced by compound addition. The resulting value was reported as the percent change in SHG intensity due to compound addition.
Each well was loaded with 5 μM alpha-synuclein and pre-incubated with one fragment compound from the Maybridge Ro3 library for 30 minutes at 1 mM in assay buffer. […] As shown in FIG. 2C (right trace), addition of 1 mM COMPOUND A to alpha-synuclein changes the SHG baseline signal immediately.

Raf kinase = test: SHG signature on Raf kinase surface array (Example 4); assay type: binding; settings: positive direction
Experimental: A library comprising 200 distinct compounds and Sorafenib, each with a molecular weight between 400 and 500 g/mol, three aromatic groups, and 2-5 nitrogen atoms, is evaluated for the structure-activity relationship using a surface array comprising more than 200 copies of a Raf kinase. The conformation state of the Raf kinase is measured by […] (SHG) methods described in the present application to establish a baseline in the absence of any compound. Each compound in the library is then contacted with a single copy of the Raf kinase on the array. The conformational state of each copy of the single kinase target is measured by SHG methods. The SHG signature for each compound is determined based on the change in conformational state upon contacting the Raf kinase. Sorafenib has a SHG signature with a 30% shift (i.e. magnitude) in the positive direction. The compounds are grouped, based on their SHG signature and common structural parameters, to generate a structure-activity relationship (SAR) catalog. For example, the 8 compounds that have a signature within 10% in magnitude to that of Sorafenib are cataloged as “molecular weight between 400 and 500 g/mol, three aromatic groups, 2-5 nitrogen atoms, and a signature with +27% to +33% magnitude”. […]

alpha-synuclein [4] = biological target: T2, alpha-synuclein (Homo sapiens, UniProt P37840); test: Thioflavin T assay / fibrillization of alpha-synuclein in vitro; assay type: biochemical
alpha-synuclein [5] = biological target: T2, alpha-synuclein; settings: cited from earlier work

NCCc1ccc(O)c(O)c1 [Dopamine]
average percent change in the SHG intensity of alpha-synuclein (alpha-synuclein [1]): 3.375±1.13%

Phthalocyanine Tetrasulfonate [PcTs]
change in the SHG intensity of alpha-synuclein (alpha-synuclein [2]; treatment with 10 μM PcTS): −79.6±2.7%

NCCCCNCCCN [Spermidine]
EC50 (alpha-synuclein [2]): 1110 µM | increase in SHG intensity (alpha-synuclein [2]; 3 mM compound added alone): 19.88±2.37% | logEC50 (alpha-synuclein [2]; SHG dose-response curve): −2.95±0.19 | change in SHG intensity (alpha-synuclein [3]): 5.1±0.81%

CNC(=O)c1cc(Oc2ccc(NC(=O)Nc3ccc(Cl)c(C(F)(F)F)c3)cc2)ccn1 [Sorafenib]
SHG signature shift (magnitude) (Raf kinase): 30%

NCCCNCCCCNCCCN [Spermine]
increase of the rate of aggregation of alpha-synuclein in vitro (alpha-synuclein [4]): roughly two-fold | factor of increase of aggregation rate in vitro (alpha-synuclein [5]): 10^5 | EC50 (alpha-synuclein [2]): 840 µM and 790 µM | Compound Only (% Shift/% Change) (alpha-synuclein [2]; 1 mM): 30.23 ± 3.69% | change in SHG intensity (alpha-synuclein [2]; 1 mM compound added alone to 5 μM alpha-synuclein): 25.58±4.33% and 30.23±3.69% | change in the SHG intensity (alpha-synuclein [2]; 5 mM compound added alone to 5 μM alpha-synuclein): 36.26±4.97% and 37.44±6.40%
